The record followed here is ChEMBL document CHEMBL6127093, “The evolution of small-molecule Akt inhibitors from hit to clinical candidate” (Eur J Med Chem, 2024).

Data set [1] can be described thus: Antiproliferative activity against human 95-D cells assessed as reduction in cell viability incubated for 24 hrs by MTT assay. In kind it is functional, cell-based.
For a further data set, the system named is KOSC-2. The data set is described as follows: Antiproliferative activity against human KOSC-2 cells assessed as reduction in cell viability incubated for 24 hrs by MTT assay. The settings on record: KOSC-2, 24 h. In kind it is functional, cell-based. For orientation: Tetrazolium assays rely on reduction of a dye to a coloured formazan, in cell work by metabolically active cells.

Data set [2] in a line: Antiproliferative activity against human KHOS-240S cells assessed as reduction in cell viability incubated for 24 hrs by MTT assay. In kind it is functional, cell-based.
Data set [3] is described as follows: Metabolic stability in mouse hepatocyte assessed as intrinsic clearance. The format is ADME, cell-based. The settings on record: hepatocytes.
Data set [4] can be described thus: Metabolic stability in rat hepatocyte assessed as intrinsic clearance. In kind it is ADME, cell-based. The note with it: hepatocytes.
Data set [5] in a line: Clearance in Beagle dog at 0.5 mg/kg, iv. In kind it is ADME, organism-based, Canis lupus familiaris. The settings on record: in vivo.
Data set [6] can be described thus: Volume of distribution at steady state in mouse at 5 mg/kg, iv. In kind it is ADME, organism-based. The settings on record: in vivo, read-out: Vdss.
Data set [7] in a line: Volume of distribution at steady state in rat at 1 mg/kg, iv. The format is ADME, organism-based. The note with it: in vivo, read-out: Vdss.
Data set [8] is described as follows: Volume of distribution at steady state in dog at 1 mg/kg, iv. The settings on record: in vivo, read-out: Vdss. In kind it is ADME, organism-based, Canis lupus familiaris.
Data set [9] is described as follows: in vivo. The note with it: mouse.
Data set [10] in a line: in vivo. The settings on record: rat.
Data set [11] in a line: Microsomal stability in human liver microsomes assessed as half life. The format is ADME, Microsome.
The nature of data set [12]: Aqueous solubility of compound at pH 7.4. The format is physicochemical. The settings on record: buffer.
The nature of data set [13]: Half life in Sprague-Dawley rat at 2 mg/kg, iv by LC-MS/MS analysis. In kind it is ADME, organism-based. The note with it: in vivo.
Data set [14] in a line: Oral bioavailability in CD-1 mouse at 5 mg/kg measured for 24 hrs by LC-MS/MS analysis. The format is ADME, organism-based. The settings on record: in vivo.
For data set [15], the system named is PC-3. The experiment in a line: Antitumor activity against human PC-3 cells xenografted in mouse assessed as inhibition of tumor growth at 50 mg/kg, po administered for 15 days relative to control. The format is functional. The note with it: PC-3, 360 h, time 15 day, read-out: TGI. On the technique in general: A xenograft is tissue or cells of one species grown in another, often human tumour cells in immunodeficient mice.

Data set [16] deals with PC-3. The experiment in a line: Antitumor activity against human PC-3 cells xenografted in CD-1 mouse assessed as tumor growth inhibition at 100 mg/kg, po bid administration relative to control. The format is functional. The settings on record: read-out: TGI.

In brackets after ≈: the same amount, converted by molar mass.

For orientation: IC50 means the concentration that gives 50% inhibition. In the case of `Cn1nccc1-c1ccc(C(=O)N[C@@H]2CNCC[C@H]2c2ccc(F)c(F)c2)c(F)c1`, the IC50 in [1] amounted to 1.03 µM; in the data set on KOSC-2, 7.47 µM; in data set [2], 7.47 µM.
As usually defined, the clearance is the rate of elimination divided by the concentration. High values mean a high capacity for elimination, low ones a low capacity for elimination. With `NC1(C(=O)NCc2ccc(Cl)cc2)CCN(c2ncnc3[nH]ccc23)CC1`, the results for the CLH in data set [3] and in data set [4] were 10 µL/min and 19 µL/min, respectively. Moreover, the clearance in data set [5] is 2 mL/min/kg. Also, the Vd worked out at 2.8 L/kg in [6], 3.1 L/kg in [7] and 2 L/kg in data set [8].
With `NC1(C(=O)N[C@@H](CCO)c2ccc(Cl)cc2)CCN(c2ncnc3[nH]ccc23)CC1` [CAPIVASERTIB], the IC50 in data set [1] stood at 2.32 µM; in the data set with KOSC-2, 40.4 µM; in data set [2], 40.4 µM. Also, the clearance in the data set “in vivo [9]” came out at 86 mL/min/kg; in the data set “in vivo [10]” it was 37 mL/min/kg.
By half-life is commonly meant the time needed for the level to fall by half in the phase considered. On to `Nc1ncccc1-c1nc2ccc(-c3ccccc3)nc2n1-c1ccc(C2(N)CCC2)cc1` [MIRANSERTIB], for which, in data set [11], the half-life was 0.917 h.
In general, solubility refers to the dissolved amount per volume that the medium holds. A high value points to a readily soluble substance. One may read the bioavailability as dose-corrected exposure relative to a reference, in per cent. In [12], `NC(=O)c1cccc2c(N[C@H](CN3CCC3)c3ccc(Cl)c(C(F)(F)F)c3)ncnc12` [RUPITASERTIB] returned a solubility of 17 µg/mL (≈ 37.8 µM). Further, the half-life in data set [13] is 3.9 h. In [14], this compound registered a bioavailability of 10%.
Take `Cc1c(NCCN2CCCC2)cc(C(=O)CCC(F)(F)F)cc1N1CCN(c2ncnc3[nH]nc(Br)c23)CC1` [XL-418]: the inhibition in vivo at 50 mg/kg in the data set with PC-3 [15] is 52%. The inhibition in vivo at 100 mg/kg in the data set on PC-3 [16] worked out at 90%.
